# Measurements from US5217882A, “Microbial transformation process for producing antihypertensive N2 -glucuronide products” (Merck & Co., Inc., priority 1992, dated 1993).
# pIC50: −log10 of the molar value.
# Target: T1, Angiotensin II (A II) receptor (Oryctolagus cuniculus, UniProt P34976)
# T1 construct: tissue Pel-Freeze Biologicals; host or cells: rabbit aorta, membrane preparation
# T1 sequence (P34976 1-359): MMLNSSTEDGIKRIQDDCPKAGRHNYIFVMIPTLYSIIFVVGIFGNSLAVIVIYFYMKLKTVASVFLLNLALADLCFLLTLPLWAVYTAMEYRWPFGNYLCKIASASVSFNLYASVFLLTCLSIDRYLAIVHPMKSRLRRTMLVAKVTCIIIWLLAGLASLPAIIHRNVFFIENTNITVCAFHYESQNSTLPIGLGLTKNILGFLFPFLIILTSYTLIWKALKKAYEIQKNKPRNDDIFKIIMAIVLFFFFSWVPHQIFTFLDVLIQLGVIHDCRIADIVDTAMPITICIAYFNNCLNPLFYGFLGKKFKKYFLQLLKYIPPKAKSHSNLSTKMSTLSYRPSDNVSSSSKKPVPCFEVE
# Experiment: Receptor binding assay using rabbit aortae membrane preparation ("IC50" assay; displacement of 125I-Sar1 Ile8-angiotensin II)
# Conditions: 37° C. for 90 minutes, read-out: inhibitory concentration (IC50) giving 50% displacement of total specifically bound 125I-Sar1 Ile8-angiotensin II
# Description: This assay is also referred to herein as the "IC50 " assay.
# Receptor binding assay using rabbit aortae membrane preparation
# Three frozen rabbit aortae (obtained from Pel-Freeze Biologicals) were suspended in 5 mM Tris-0.25M Sucrose, pH 7.4 buffer (50 ml) homogenized, and then centrifuged. The mixture was filtered through a cheesecloth and the supernatant was centrifuged for 30 minutes at 20,000 rpm at 4° C. The pellet thus obtained was resuspended in 30 ml of 50 mM Tris-5 mM MgCl2 buffer containing 0.2% Bovine Serum Albumin and 0.2 mg/ml Bacitration and the suspension was used for 100 assay tubes. Samples tested for screening were done in duplicate. To the membrane preparation (0.25 ml) there was added ^125 I-Sar^1 -Ile^8 -angiotensin II [obtained from New England Nuclear] (10 ul; 20,000 cpm) with or without the test sample and the mixture was incubated at 37° C. for 90 minutes. The mixture was then diluted with ice-cold 50 mM Tris-0.9% NaCl, pH 7.4 (4 ml) and filtered through a glass fiber filter (GF/B Whatman 2.4" diameter). The filter was soaked in scintillation cocktail (10 ml) and counted for radioactivity using Packard 2660 Tricarb liquid scintillation counter. […]
compound,measurement,value
CCCCc1nc(Cl)c(CO)n1Cc1ccc(-c2ccccc2-c2nnn(C3OC(C(=O)O)C(O)C(O)C3O)n2)cc1 (stereo not shown) [compound (I)],pIC50,> 4.30
